Test results reported in the supplement of paper PMC6045584.
± gives the standard deviation of the averaged measurements.

Columns and labels:
[1] = compound: Cc1ccc(NC(=O)c2ccc(CN3CCN(C)CC3)cc2)cc1Nc1nccc(-c2cccnc2)n1 [IMATINIB]; assay: surviving fraction relative to DMSO-only wells; higher = less growth inhibition; conditions: exposure time: 5 days
How it was run: (§1)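 Each tumour cell line was screened three times, and only lines with replicate Pearson r >0.7 and median Z' >0.3 were kept. Cells in log phase were seeded at 250–500 per well in 384-well plates, left 24 hours, then exposed continuously for five days to inhibitors at 0.5, 1, 5, 10, 50, 100, 500 and 1000 nM. Viability was read as CellTiter-Glo luminescence, with surviving fraction normalised to the median of DMSO-only wells.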

[2] = compound: Cc1c(N)nc([C@H](CC(N)=O)NC[C@H](N)C(N)=O)nc1C(=O)N[C@H](C(=O)N[C@H](C)[C@@H](O)[C@H](C)C(=O)N[C@H](C(=O)NCCc1nc(-c2nc(C(=O)NCCC[S+](C)C)cs2)cs1)[C@@H](C)O)[C@@H](OC1OC(CO)C(O)C(O)C1OC1OC(CO)C(O)C(OC(N)=O)C1O)c1cnc[nH]1 [BLEOMYCIN]; assay: as above; conditions: exposure time: 5 days
How it was run: as §1

Row | Test System | surviving fraction ([1]; 0.5 nM) | surviving fraction ([1]; 1 nM) | surviving fraction ([1]; 5 nM) | surviving fraction ([1]; 10 nM) | surviving fraction ([1]; 50 nM) | surviving fraction ([1]; 100 nM) | surviving fraction ([1]; 500 nM) | surviving fraction ([1]; 1000 nM) | surviving fraction ([2]; 0.5 nM) | surviving fraction ([2]; 1 nM) | surviving fraction ([2]; 5 nM) | surviving fraction ([2]; 10 nM) | surviving fraction ([2]; 50 nM) | surviving fraction ([2]; 100 nM) | surviving fraction ([2]; 500 nM) | surviving fraction ([2]; 1000 nM)
1 | ZR751 BREAST | 1.23 ± 0.15 | 1.15 ± 0.14 | 1.05 ± 0.1 | 1.17 ± 0.23 | 1.16 ± 0.11 | 1.11 ± 0.063 | 1.13 ± 0.065 | 1.07 ± 0.14 | 0.985 ± 0.037 | 0.975 ± 0.083 | 0.925 ± 0.1 | 0.957 ± 0.19 | 0.905 ± 0.073 | 0.924 ± 0.17 | 0.897 ± 0.15 | 0.69 ± 0.12
2 | HCC1954 BREAST | 1.2 ± 0.15 | 1.28 ± 0.091 | 1.23 ± 0.12 | 1.27 ± 0.045 | 0.9283 ± 0.006 | 0.887 ± 0.025 | 1.07 ± 0.1 | 1 ± 0.0071 | 0.4128 ± 0.0025 | 0.433 ± 0.01 | 0.42 ± 0.043 | 0.456 ± 0.0085 | 0.467 ± 0.037 | 0.415 ± 0.064 | 0.364 ± 0.061 | 0.417 ± 0.01
3 | CAL120 BREAST | 0.995 ± 0.073 | 0.978 ± 0.041 | 0.994 ± 0.091 |  | 1.03 ± 0.021 | 0.97 ± 0.045 | 1.04 ± 0.044 | 0.992 ± 0.07 | 0.901 ± 0.028 | 0.926 ± 0.022 | 0.903 ± 0.013 | 0.9 ± 0.023 | 0.819 ± 0.023 | 0.767 ± 0.021 | 0.546 ± 0.027 | 0.399 ± 0.0084
4 | SG28 HEADNECK | 1.25 ± 0.093 | 1.11 ± 0.12 |  |  |  |  | 1.18 ± 0.11 | 1.14 ± 0.096 | 0.864 ± 0.081 | 0.917 ± 0.11 | 0.892 ± 0.056 | 0.907 ± 0.13 | 0.944 ± 0.074 | 0.899 ± 0.053 | 0.909 ± 0.028 | 0.868 ± 0.1
5 | SG31 HEADNECK | 1.16 ± 0.19 | 1.33 ± 0.14 | 1.36 ± 0.36 | 1.16 ± 0.33 | 1.07 ± 0.1 | 0.994 ± 0.022 | 1.33 ± 0.21 | 1.18 ± 0.16 | 0.979 ± 0.12 | 0.924 ± 0.018 | 0.767 ± 0.12 | 0.805 ± 0.12 | 0.83 ± 0.046 | 0.733 ± 0.066 | 0.712 ± 0.13 | 0.595 ± 0.065
6 | OSHN BONE | 1.13 ± 0.024 | 1.126 ± 0.0095 | 1.1 ± 0.033 | 1.12 ± 0.012 | 1.16 ± 0.013 | 1.14 ± 0.017 |  | 1.1 ± 0.051 | 0.9207 ± 0.0087 | 0.916 ± 0.012 | 0.916 ± 0.007 | 0.903 ± 0.024 | 0.925 ± 0.0044 | 0.856 ± 0.07 | 0.29 ± 0.039 | 0.132 ± 0.03
7 | SCC36 HEADNECK | 1.03 ± 0.11 | 1.04 ± 0.18 | 1.09 ± 0.12 |  | 1.11 ± 0.024 |  | 0.886 ± 0.066 |  | 0.763 ± 0.09 | 0.762 ± 0.064 | 0.726 ± 0.027 | 0.7173 ± 0.004 | 0.998 ± 0.081 | 0.907 ± 0.1 | 0.631 ± 0.011 | 0.499 ± 0.012
8 | CAL51 BREAST | 1.04 ± 0.096 |  | 1.08 ± 0.036 | 1.06 ± 0.055 | 1.08 ± 0.024 | 1.06 ± 0.033 | 1.1 ± 0.012 | 1.09 ± 0.054 | 0.911 ± 0.036 | 0.893 ± 0.052 | 0.904 ± 0.018 | 0.884 ± 0.014 | 0.729 ± 0.043 | 0.621 ± 0.037 | 0.273 ± 0.016 | 0.17 ± 0.011
9 | HOS BONE | 1.03 ± 0.02 |  | 1.04 ± 0.028 | 1.047 ± 0.0078 |  | 1.06 ± 0.023 | 1.03 ± 0.037 |  | 0.936 ± 0.0079 | 0.926 ± 0.023 | 0.9497 ± 0.0038 | 0.94 ± 0.017 | 1 ± 0.035 | 0.984 ± 0.014 | 0.589 ± 0.043 | 0.291 ± 0.039
10 | HCC78 LUNG | 0.936 ± 0.094 | 1.03 ± 0.16 | 0.997 ± 0.043 |  | 1.04 ± 0.072 |  | 1.34 ± 0.16 | 1.18 ± 0.091 | 0.839 ± 0.12 | 0.932 ± 0.32 | 0.892 ± 0.2 | 0.774 ± 0.39 | 0.376 ± 0.14 | 0.499 ± 0.13 | 0.202 ± 0.075 | 0.0983 ± 0.032
11 | HCC1806 BREAST | 1.06 ± 0.044 | 1.05 ± 0.093 | 1.12 ± 0.07 | 1.16 ± 0.021 | 1.15 ± 0.15 | 1.24 ± 0.08 | 0.983 ± 0.077 | 0.956 ± 0.15 | 0.771 ± 0.058 | 0.824 ± 0.1 | 0.682 ± 0.035 | 0.56 ± 0.0059 | 0.397 ± 0.0062 | 0.2757 ± 0.0015 | 0.108 ± 0.0021 | 0.0743 ± 0.0095
